Measured values reported in PubChem BioAssay AID330 (DTP/NCI, 2004).
Values joined by “and” are separate entries in the source; they are usually repeats but may differ in a detail not shown here. Equal values may be shown once. Toxic doses and inconclusive results are not listed.

Test system: P388 leukemia ip, CD2F1 mice, survival T/C
Assay: NCI In Vivo Anticancer Drug Screen. Data for tumor model P388 Leukemia (intraperitoneal) in CD2F1 (CDF1) mice
Details: endpoint: median survival time, higher = longer survival
Summary of the method: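 Mice carrying the transplanted tumor received test compound or vehicle. Survival was recorded in each group, and the value is the treated-group measurement divided by that of the vehicle-treated control group.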

[1] = dose: 25.0 mg/kg/injection, schedule: Q01DX009 (ip), vehicle: saline with Tween-80
[2] = dose: 400.0 mg/kg/injection, schedule: Q01DX001 (ip), vehicle: saline with Tween-80
[3] = dose: 50.0 mg/kg/injection, schedule: Q01DX005 (ip), vehicle: saline with Tween-80
[4] = dose: 100.0 mg/kg/injection, schedule: Q01DX005 (ip), vehicle: saline with Tween-80
[5] = dose: 200.0 mg/kg/injection, schedule: Q01DX005 (ip), vehicle: saline with Tween-80
[6] = dose: 50.0 mg/kg/injection, schedule: Q01DX009 (ip), vehicle: saline
[7] = dose: 100.0 mg/kg/injection, schedule: Q01DX009 (ip), vehicle: saline
[8] = dose: 200.0 mg/kg/injection, schedule: Q01DX009 (ip), vehicle: saline
[9] = dose: 50.0 mg/kg/injection, schedule: Q01DX009 (ip), vehicle: Klucel (hydroxypropylcellulose) (HPC)
[10] = dose: 100.0 mg/kg/injection, schedule: Q01DX009 (ip), vehicle: Klucel (hydroxypropylcellulose) (HPC)
[11] = dose: 200.0 mg/kg/injection, schedule: Q01DX009 (ip), vehicle: Klucel (hydroxypropylcellulose) (HPC)
[12] = dose: 50.0 mg/kg/injection, schedule: Q01DX005 (ip), vehicle: Klucel (hydroxypropylcellulose) (HPC)
[13] = dose: 100.0 mg/kg/injection, schedule: Q01DX005 (ip), vehicle: Klucel (hydroxypropylcellulose) (HPC)
[14] = dose: 200.0 mg/kg/injection, schedule: Q01DX005 (ip), vehicle: Klucel (hydroxypropylcellulose) (HPC)
[15] = dose: 60.0 mg/kg/injection, schedule: Q01DX005 (ip), vehicle: saline with Tween-80
[16] = dose: 120.0 mg/kg/injection, schedule: Q01DX005 (ip), vehicle: saline with Tween-80
[17] = dose: 240.0 mg/kg/injection, schedule: Q01DX005 (ip), vehicle: saline with Tween-80

CNc1nc2c(C)ccc3[nH]c(NC)nc3c-2n1
T/C (dose: 8.0 mg/kg/injection, schedule: Q01DX005 (ip), vehicle: Klucel (hydroxypropylcellulose) (HPC)): 95 % of control | T/C (dose: 16.0 mg/kg/injection, schedule: Q01DX005 (ip), vehicle: Klucel (hydroxypropylcellulose) (HPC)): 100 % of control | T/C (dose: 32.0 mg/kg/injection, schedule: Q01DX005 (ip), vehicle: Klucel (hydroxypropylcellulose) (HPC)): 90 % of control | T/C (dose: 64.0 mg/kg/injection, schedule: Q01DX005 (ip), vehicle: Klucel (hydroxypropylcellulose) (HPC)): 88 % of control

CCCCCCCCCCCCCCCC(=O)NC(CCCCN)C(=O)NC(CCCCN)C(=O)OCC (stereo not given)
T/C (dose: 12.5 mg/kg/injection, schedule: Q01DX009 (ip), vehicle: saline with Tween-80): 101 % of control | T/C [1]: 106 % of control

C=C(Cl)CNc1ccccc1C(=O)O
T/C (dose: 25.0 mg/kg/injection, schedule: Q04DX003 (ip), vehicle: Klucel (hydroxypropylcellulose) (HPC)): 109 % of control and 97 % of control | T/C (dose: 50.0 mg/kg/injection, schedule: Q04DX003 (ip), vehicle: Klucel (hydroxypropylcellulose) (HPC)): 109 % of control and 110 % of control | T/C (dose: 100.0 mg/kg/injection, schedule: Q04DX003 (ip), vehicle: Klucel (hydroxypropylcellulose) (HPC)): 103 % of control and 95 % of control | T/C (dose: 200.0 mg/kg/injection, schedule: Q04DX003 (ip), vehicle: Klucel (hydroxypropylcellulose) (HPC)): 94 % of control

NC(=S)c1sc(-c2ccccc2)cc1N
T/C (dose: 60.0 mg/kg/injection, schedule: Q01DX005 (ip), vehicle: Klucel (hydroxypropylcellulose) (HPC)): 108 % of control | T/C (dose: 120.0 mg/kg/injection, schedule: Q01DX005 (ip), vehicle: Klucel (hydroxypropylcellulose) (HPC)): 106 % of control | T/C (dose: 240.0 mg/kg/injection, schedule: Q01DX005 (ip), vehicle: Klucel (hydroxypropylcellulose) (HPC)): 104 % of control

COC(=O)Cn1/c(=N\N=C(/C)c2ccc([N+](=O)[O-])cc2)sc2ccccc21
T/C (dose: 12.5 mg/kg/injection, schedule: Q01DX001 (ip), vehicle: saline with Tween-80): 92 % of control | T/C (dose: 25.0 mg/kg/injection, schedule: Q01DX001 (ip), vehicle: saline with Tween-80): 89 % of control | T/C (dose: 50.0 mg/kg/injection, schedule: Q01DX001 (ip), vehicle: saline with Tween-80): 89 % of control | T/C [2]: 88 % of control

Cc1[nH]oc(=O)c1C(=O)c1ccccc1
T/C [3]: 95 % of control | T/C [4]: 91 % of control | T/C [5]: 91 % of control

N#CC(C#N)=C1SCCCS1
T/C [6]: 105 % of control | T/C [7]: 95 % of control | T/C [8]: 98 % of control

COC(OC)C(C)(C)NC(C)(C)C
T/C [6]: 104 % of control | T/C [7]: 100 % of control

O=C1c2ccccc2CC12OC2c1ccccc1 (stereo not given)
T/C (dose: 25.0 mg/kg/injection, schedule: Q01DX009 (ip), vehicle: Klucel (hydroxypropylcellulose) (HPC)): 96 % of control | T/C [9]: 92 % of control | T/C [10]: 92 % of control | T/C [11]: 89 % of control | T/C (dose: 400.0 mg/kg/injection, schedule: Q01DX009 (ip), vehicle: Klucel (hydroxypropylcellulose) (HPC)): 92 % of control

CCCCNC(=S)N/N=C1/C=C2C=CC3C(CCC4(C)C(OC(C)=O)CCC34)C2(C)CC1 (stereo not given)
T/C (dose: 100.0 mg/kg/injection, schedule: Q01DX001 (ip), vehicle: saline): 99 % of control | T/C (dose: 200.0 mg/kg/injection, schedule: Q01DX001 (ip), vehicle: saline): 98 % of control | T/C (dose: 400.0 mg/kg/injection, schedule: Q01DX001 (ip), vehicle: saline): 97 % of control

O=C(NC(Cc1ccc(I)cc1)C(=O)O)c1ccc(I)cc1 (stereo not given)
T/C [12]: 96 % of control | T/C [13]: 104 % of control | T/C [14]: 104 % of control

Cc1c2cc[n+]([O-])cc2c(C)c2c1oc1ccccc12
T/C [1]: 115 % of control | T/C (dose: 100.0 mg/kg/injection, schedule: Q01DX009 (ip), vehicle: saline with Tween-80): 154 % of control | T/C (dose: 200.0 mg/kg/injection, schedule: Q01DX009 (ip), vehicle: saline with Tween-80): 165 % of control and 173 % of control

CSC(=CC(=O)c1ccco1)SC
T/C [15]: 98 % of control | T/C [16]: 96 % of control

CCOc1cc2c(cc1C(CC)c1ccc(OC)cc1)OCO2 (stereo not given)
T/C [12]: 104 % of control | T/C [13]: 104 % of control | T/C [14]: 99 % of control

Brc1cccc2[s+]snc12
T/C [3]: 101 % of control | T/C [4]: 105 % of control | T/C [5]: 97 % of control

Nc1nnc(SCCCCCCCCCCSc2nnc(N)s2)s1
T/C [12]: 95 % of control | T/C [13]: 91 % of control | T/C [14]: 89 % of control

CCN(CC)c1ccc(Pc2ccc(N(CC)CC)cc2)cc1
T/C (dose: 12.5 mg/kg/injection, schedule: Q01DX009 (ip), vehicle: saline): 104 % of control | T/C (dose: 25.0 mg/kg/injection, schedule: Q01DX009 (ip), vehicle: saline): 108 % of control | T/C [6]: 99 % of control and 88 % of control | T/C [8]: 92 % of control

CCCCCCCCCCCC(=O)Nc1ncc([N+](=O)[O-])s1
T/C [9]: 101 % of control | T/C [10]: 102 % of control | T/C [11]: 106 % of control

Oc1cc(O)cc(/C=C/c2ccccc2)c1
T/C (dose: 50.0 mg/kg/injection, schedule: Q01DX005 (ip), vehicle: water): 107 % of control | T/C (dose: 100.0 mg/kg/injection, schedule: Q01DX005 (ip), vehicle: water): 101 % of control

CC(O)c1nc2ncc(Br)cc2[nH]1 (stereo not given)
T/C (dose: 100.0 mg/kg/injection, schedule: Q01DX001 (ip), vehicle: saline with Tween-80): 93 % of control | T/C (dose: 200.0 mg/kg/injection, schedule: Q01DX001 (ip), vehicle: saline with Tween-80): 99 % of control | T/C [2]: 101 % of control

O=Cc1ccccc1/C=C/C(=O)/C=C/c1ccccc1C=O
T/C (dose: 12.5 mg/kg/injection, schedule: Q01DX005 (ip), vehicle: Klucel (hydroxypropylcellulose) (HPC)): 105 % of control | T/C (dose: 25.0 mg/kg/injection, schedule: Q01DX005 (ip), vehicle: Klucel (hydroxypropylcellulose) (HPC)): 105 % of control | T/C [12]: 107 % of control and 110 % of control

CC[N+](CC)=c1ccc2nc3c(cc(NCc4ccccc4)c4ccccc43)oc-2c1
T/C (dose: 12.5 mg/kg/injection, schedule: Q01DX005 (ip), vehicle: saline with Tween-80): 103 % of control | T/C (dose: 25.0 mg/kg/injection, schedule: Q01DX005 (ip), vehicle: saline with Tween-80): 100 % of control | T/C [3]: 105 % of control and 107 % of control

O=C(O)CC(NC(=O)c1ccccc1)C(=O)O (stereo not given)
T/C [3]: 96 % of control | T/C [4]: 102 % of control | T/C [5]: 92 % of control

COc1ccc2c(O)c(S(=O)(=O)c3ccc(Cl)cc3)c(=O)oc2c1
T/C [15]: 102 % of control | T/C [16]: 112 % of control | T/C [17]: 102 % of control

COc1ccc(NC2=C(Cl)C(=O)C(Nc3ccc(OC)cc3)=C(Cl)C2=O)cc1
T/C [3]: 95 % of control | T/C [4]: 97 % of control | T/C [5]: 98 % of control

O=C(CCSCCCl)Nc1c([N+](=O)[O-])cc([N+](=O)[O-])cc1S(=O)(=O)O
T/C (dose: 3.13 mg/kg/injection, schedule: Q04DX003 (ip), vehicle: DMSO): 104 % of control | T/C (dose: 6.25 mg/kg/injection, schedule: Q04DX003 (ip), vehicle: DMSO): 99 % of control | T/C (dose: 12.5 mg/kg/injection, schedule: Q04DX003 (ip), vehicle: DMSO): 111 % of control | T/C (dose: 25.0 mg/kg/injection, schedule: Q04DX003 (ip), vehicle: DMSO): 124 % of control | T/C (dose: 25.0 mg/kg/injection, schedule: Q04DX003 (ip), vehicle: olive oil, sesame oil, peanut oil): 118 % of control | T/C (dose: 50.0 mg/kg/injection, schedule: Q04DX003 (ip), vehicle: DMSO): 118 % of control | T/C (dose: 75.0 mg/kg/injection, schedule: Q04DX003 (ip), vehicle: DMSO): 118 % of control

O=c1oc2ccc3ccccc3c2cc1-c1c[nH]c2ccccc12
T/C [15]: 98 % of control | T/C [16]: 95 % of control | T/C [17]: 98 % of control

OC1OC2CCC3C2C2C1C1C4CCC5OC(O)C6C3C2C1C6C54 (stereo not given)
T/C (dose: 20.0 mg/kg/injection, schedule: Q01DX005 (ip), vehicle: saline with Tween-80): 97 % of control | T/C (dose: 40.0 mg/kg/injection, schedule: Q01DX005 (ip), vehicle: saline with Tween-80): 100 % of control | T/C (dose: 80.0 mg/kg/injection, schedule: Q01DX005 (ip), vehicle: saline with Tween-80): 100 % of control
